From patent US4120955A, “Method for production of kanamycin C and its derivatives” (Zaidan Hojin Biseibutsu Kagaku Kenkyu Kai, priority 1976, dated 1978)
Converted amounts (≈) assume the structure as drawn. “Also recorded” adds a separate entry of the source. Read-outs that look alike come from different tables or passages of the source.

What was measured:
[1] = tested on: aminoglycoside 6'-acetyltransferases; assay: Inactivation by aminoglycoside 6'-acetyltransferases; format: biochemical
[2] = tested on: Escherichia coli K-12 ML 1630; assay: Minimum inhibitory concentration, serial dilution method; format: cell-based; conditions: K12ML1630, nutrient agar, 37° C., 18 hours, E. coli K-12 ML 1630
Description: (§1) The minimum inhibitory concentrations (mcg/ml) of kanamycin C, 3'-deoxykanamycin C and 3',4'-dideoxykanamycin C against various microorganisms were determened according to serial dilution method using nutrient agar medium at 37° C., the estimation being effected after 18 hours incubation.

Escherichia coli W 677 = assay: as above; format: cell-based
Description: as §1

[3] = tested on: Pseudomonas aeruginosa No. 12; assay: as above; format: cell-based
Description: as §1

[4] = tested on: Escherichia coli JR 66/W677; assay: as above; format: cell-based
Description: as §1

[5] = tested on: Escherichia coli K-12 ML 1629; assay: as above; format: cell-based
Description: as §1

[6] = tested on: Escherichia coli LA 290 R55; assay: as above; format: cell-based; conditions: LA290R55, 18 h, read-out: Minimum Inhibitory Concentration
Description: as §1

[7] = tested on: Pseudomonas aeruginosa A3; assay: as above; format: cell-based; conditions: nutrient agar, 37° C., 18 hours, P. aeruginosa A3
Description: as §1

[8] = tested on: Escherichia coli LA 290 R56; assay: as above; format: cell-based; conditions: LA290R56, 18 h, read-out: Minimum Inhibitory Concentration
Description: as §1

[9] = tested on: Escherichia coli LA 290 R64; assay: as above; format: cell-based; conditions: LA290R64, 18 h, read-out: Minimum Inhibitory Concentration
Description: as §1

[10] = tested on: Klebsiella pneumoniae 22 No. 3038; assay: as above; format: cell-based
Description: as §1

[11] = tested on: Pseudomonas aeruginosa GN 315; assay: as above; format: cell-based
Description: as §1

Escherichia coli K-12 R5 = assay: as above; format: cell-based; conditions: K12R5, 18 h, read-out: Minimum Inhibitory Concentration
Description: as §1

Escherichia coli K-12 = assay: as above; format: cell-based
Description: as §1

[12] = tested on: Escherichia coli K-12 ML 1410 R81; assay: as above; format: cell-based; conditions: 18 h, read-out: Minimum Inhibitory Concentration
Description: as §1

[13] = tested on: Escherichia coli K-12 ML 1410; assay: as above; format: cell-based; conditions: K12ML1410, nutrient agar, 37° C., 18 hours, E. coli K-12 ML 1410
Description: as §1

[14] = tested on: Pseudomonas aeruginosa H 11; assay: as above; format: cell-based; conditions: H11, 18 h, read-out: Minimum Inhibitory Concentration
Description: as §1

[15] = tested on: Staphylococcus aureus FDA 209P; assay: as above; format: cell-based; conditions: FDA209P, read-out: Minimum Inhibitory Concentration
Description: as §1

[16] = tested on: Mycobacterium smegmatis ATCC 607; assay: as above; format: cell-based; conditions: Mycolicibacterium smegmatis, read-out: Minimum Inhibitory Concentration
Description: as §1

Escherichia coli NIHJ = assay: as above; format: cell-based; conditions: read-out: Minimum Inhibitory Concentration
Description: as §1

[17] = tested on: Pseudomonas aeruginosa TI-13; assay: as above; format: cell-based; conditions: TI13, 18 h, read-out: Minimum Inhibitory Concentration
Description: as §1

[18] = tested on: Klebsiella pneumoniae PCI 602; assay: as above; format: cell-based
Description: as §1

99 = assay: as above; format: cell-based; conditions: 18 h, read-out: Minimum Inhibitory Concentration
Description: as §1

[19] = tested on: aminoglycoside 6'-acetyltransferases; conditions: known kanamycins; cited from earlier work
[20] = tested on: resistant strains which produce 6'-acetyltransferases, for example Pseudomonas aeruginosa GN315; conditions: known deoxykanamycin B derivatives; cited from earlier work
[21] = tested on: resistant bacteria which produce 3'-phosphotransferases; conditions: known deoxykanamycin B derivatives; cited from earlier work
in vivo = conditions: mouse, iv
[22] = tested on: aminoglycoside 3'-phosphotransferases; assay: Inactivation by aminoglycoside 3'-phosphotransferases; format: biochemical
[23] = mouse, in vivo
bacterial strains = assay: Antibacterial activity in general (summary of Table 1); format: cell-based
Description: as §1

[24] = W677, 18 h, read-out: Minimum Inhibitory Concentration
[25] = NO.12, 18 h, read-out: Minimum Inhibitory Concentration
[26] = JR66/W677, 18 h, read-out: Minimum Inhibitory Concentration
[27] = K12ML1629, 18 h, read-out: Minimum Inhibitory Concentration
[28] = 22NO.3038, 18 h, read-out: Minimum Inhibitory Concentration
[29] = GN315, 18 h, read-out: Minimum Inhibitory Concentration
[30] = K12, 18 h, read-out: Minimum Inhibitory Concentration
[31] = PCI602, 18 h, read-out: Minimum Inhibitory Concentration
[32] = W677, nutrient agar, 37° C., 18 hours, E. coli W 677, read-out: Minimum Inhibitory Concentration
[33] = JR66/W677, nutrient agar, 37° C., 18 hours, E. coli JR 66/W677, read-out: Minimum Inhibitory Concentration
[34] = nutrient agar, 37° C., 18 hours, K. pneumoniae 22 No. 3038, read-out: Minimum Inhibitory Concentration
[35] = K12, nutrient agar, 37° C., 18 hours, E. coli K-12, read-out: Minimum Inhibitory Concentration
[36] = nutrient agar, 37° C., 18 hours, S. aureus FDA 209P
[37] = ATCC607, nutrient agar, 37° C., 18 hours, M. smegmatis ATCC 607
[38] = PCI602, nutrient agar, 37° C., 18 hours, K. pneumoniae PCI 602, read-out: Minimum Inhibitory Concentration

| SMILES | inactivation by 6'-acetyltransferases [1] | MIC [2] | MIC (Escherichia coli W 677; [24]) | MIC [3, 25] | MIC [4, 26] | MIC [5, 27] | MIC [6] | MIC [7] | MIC [8] | MIC [9] | MIC [10, 28] | MIC [11, 29] | MIC (Escherichia coli K-12 R5) | MIC [12] | MIC [13] | MIC (Escherichia coli NIHJ; 18 h) | MIC [17] | MIC 99 | inactivation (acetylation of the 6'-amino group) by 6'-acetyltransferases [19] | MIC [16, 37] | other results |
| --- | --- | --- | --- | --- | --- | --- | --- | --- | --- | --- | --- | --- | --- | --- | --- | --- | --- | --- | --- | --- | --- |
| NC1CC(N)C(OC2OC(CO)C(O)C(N)C2O)C(O)C1OC1OC(CO)C(O)C(O)C1N (stereo not drawn) [Kanamycin C, kanamycin C] | inherently cannot be inactivated | > 100 µg/mL | 3.13 µg/mL (≈ 6.46 µM) | 100 µg/mL (≈ 206 µM) | > 100 µg/mL | > 100 µg/mL | > 100 µg/mL | > 100 µg/mL | 25 µg/mL (≈ 51.6 µM) | 25 µg/mL (≈ 51.6 µM) | > 100 µg/mL | > 100 µg/mL | 3.13 µg/mL (≈ 6.46 µM) | > 100 µg/mL | 6.25 µg/mL (≈ 12.9 µM) | 3.13 µg/mL (≈ 6.46 µM) | > 100 µg/mL | > 100 µg/mL |  |  | MIC (Escherichia coli K-12; [30]): 3.13 µg/mL (≈ 6.46 µM); MIC [14]: > 100 µg/mL; MIC ([15]; 18 h): 1.56 µg/mL (≈ 3.22 µM); MIC ([16]; ATCC607, 18 h): 12.5 µg/mL (≈ 25.8 µM); MIC [18, 31]: 3.13 µg/mL (≈ 6.46 µM) |
| NCC1OC(OC2C(N)CC(N)C(OC3OC(CO)C(O)C(N)C3O)C2O)C(O)C(O)C1O (stereo not drawn) [kanamycin A] |  |  |  |  |  |  |  |  |  |  |  |  |  |  |  |  |  |  | acetylate the 6'-amino group |  |  |
| NCC1CCC(N)C(OC2C(N)CC(N)C(OC3OC(CO)C(O)C(N)C3O)C2O)O1 (stereo not drawn) [DKB, 3',4'-dideoxykanamycin B, reference compound] |  | 0.78 µg/mL (≈ 1.73 µM) |  |  |  |  | 50 µg/mL (≈ 111 µM) | 1.56 µg/mL (≈ 3.45 µM) | 12.5 µg/mL (≈ 27.7 µM) | 6.25 µg/mL (≈ 13.8 µM) |  |  |  | 1.56 µg/mL (≈ 3.45 µM) | 1.56 µg/mL (≈ 3.45 µM) |  | 1.56 µg/mL (≈ 3.45 µM) | 3.13 µg/mL (≈ 6.93 µM) | can be inactivated; also recorded: acetylate the 6'-amino group | 0.39 µg/mL (≈ 0.864 µM) | growth inhibition of resistant bacteria producing 6'-acetyltransferases [20]: not able to inhibit the growth; MIC (Escherichia coli W 677; [32]): 0.2 µg/mL (≈ 0.443 µM); MIC ([3]; nutrient agar, 37° C., 18 hours, P. aeruginosa No. 12, read-out: Minimum Inhibitory Concentration): 0.78 µg/mL (≈ 1.73 µM); MIC [4, 33]: 50 µg/mL (≈ 111 µM); MIC ([5]; K12ML1629, nutrient agar, 37° C., 18 hours, E. coli K-12 ML 1629, read-out: Minimum Inhibitory Concentration): 0.78 µg/mL (≈ 1.73 µM); MIC [10, 34]: 100 µg/mL (≈ 221 µM); MIC ([11]; GN315, nutrient agar, 37° C., 18 hours, P. aeruginosa GN 315, read-out: Minimum Inhibitory Concentration): > 100 µg/mL; MIC (Escherichia coli K-12; [35]): 0.78 µg/mL (≈ 1.73 µM); MIC [15, 36]: < 0.2 µg/mL; MIC (Escherichia coli NIHJ; nutrient agar, 37° C., 18 hours, E. coli NIHJ): 0.39 µg/mL (≈ 0.864 µM); MIC [18, 38]: 0.39 µg/mL (≈ 0.864 µM) |
| NC[C@H]1O[C@H](O[C@H]2[C@H](O)[C@@H](O[C@H]3O[C@H](CO)[C@@H](O)[C@H](N)[C@H]3O)[C@H](N)C[C@@H]2N)[C@H](N)[C@@H](O)[C@@H]1O [kanamycin B] |  |  |  |  |  |  |  |  |  |  |  |  |  |  |  |  |  |  | acetylate the 6'-amino group |  |  |
| NCC1OC(OC2C(N)CC(N)C(OC3OC(CO)C(O)C(N)C3O)C2O)C(N)CC1O (stereo not drawn) [DKMB, 3'-deoxykanamycin B, reference compound] |  | 1.56 µg/mL (≈ 3.34 µM) |  | 0.78 µg/mL (≈ 1.67 µM) |  | 1.56 µg/mL (≈ 3.34 µM) | 25 µg/mL (≈ 53.5 µM) | 1.56 µg/mL (≈ 3.34 µM) | 3.13 µg/mL (≈ 6.69 µM) | 3.13 µg/mL (≈ 6.69 µM) |  | 100 µg/mL (≈ 214 µM) |  | 1.56 µg/mL (≈ 3.34 µM) | 1.56 µg/mL (≈ 3.34 µM) | 0.78 µg/mL (≈ 1.67 µM) | 0.78 µg/mL (≈ 1.67 µM) | 1.56 µg/mL (≈ 3.34 µM) | can be inactivated; also recorded: acetylate the 6'-amino group | 0.39 µg/mL (≈ 0.834 µM) | activity against resistant bacteria producing aminoglycoside 3'-phosphotransferases [21]: active; growth inhibition of resistant bacteria producing 6'-acetyltransferases [20]: not able to inhibit the growth; LD50 (in vivo): 159 mg/kg; MIC (Escherichia coli W 677; [32]): 0.39 µg/mL (≈ 0.834 µM); MIC [4, 33]: 50 µg/mL (≈ 107 µM); MIC [10, 34]: 50 µg/mL (≈ 107 µM); MIC (Escherichia coli K-12; [35]): 0.39 µg/mL (≈ 0.834 µM); MIC [15, 36]: < 0.2 µg/mL; MIC [18, 38]: 0.39 µg/mL (≈ 0.834 µM) |
| NC1CCC(CO)OC1OC1C(N)CC(N)C(OC2OC(CO)C(O)C(N)C2O)C1O (stereo not drawn) [3',4'-Dideoxykanamycin C, 3',4'-dideoxykanamycin C] | not inactivated | 12.5 µg/mL (≈ 27.6 µM) | 6.25 µg/mL (≈ 13.8 µM) | 100 µg/mL (≈ 221 µM) | > 100 µg/mL | 12.5 µg/mL (≈ 27.6 µM) | > 100 µg/mL | 100 µg/mL (≈ 221 µM) | 100 µg/mL (≈ 221 µM) | 100 µg/mL (≈ 221 µM) | > 100 µg/mL | 100 µg/mL (≈ 221 µM) | 12.5 µg/mL (≈ 27.6 µM) | 50 µg/mL (≈ 110 µM) | 12.5 µg/mL (≈ 27.6 µM) | 12.5 µg/mL (≈ 27.6 µM) | 100 µg/mL (≈ 221 µM) | > 100 µg/mL |  | 50 µg/mL (≈ 110 µM) | inactivation by 3'-phosphotransferases [22]: not inactivated; acute toxicity compared with deoxy derivatives of kanamycin B [23]: remarkably lower toxicity; LD50 (in vivo): > 300 mg/kg; MIC (Escherichia coli K-12; [30]): 25 µg/mL (≈ 55.2 µM); MIC [14]: 100 µg/mL (≈ 221 µM); MIC ([15]; 18 h): 6.25 µg/mL (≈ 13.8 µM); MIC [18, 31]: 25 µg/mL (≈ 55.2 µM); growth inhibition of bacterial strains (bacterial strains): inhibits the growth of many kinds of bacterial strains; antibacterial activity compared with 3'-deoxykanamycin B and 3',4'-dideoxykanamycin B (bacterial strains; against some bacteria strains): inferior |
